{"source": "patent US20130115589A1", "about": "“Pharmaceutical Composition for Treatment and Prevention of Herpes Virus Infections” (THE UNIVERSITY OF TOKYO, priority 2010, published 2013)", "key": {"[1]": {"test_system": "HSV-1 GFP", "assay_type": "cell-based, Herpes simplex virus 1 (HSV-1)", "settings": "for HSV entry into Vero cells (relative fluorescence intensity): 30 minutes pretreatment, ML-7 20 μM, ACC 40 μM"}, "[2]": {"test_system": "influenza virus", "assay_type": "cell-based"}, "[3]": {"test_system": "NMHC-IIA", "assay_type": "cell-based", "settings": "Vero cells pretreated with ML-7"}, "[4]": {"test_system": "HSV-1 GFP", "assay_type": "cell-based, Herpes simplex virus 1 (HSV-1)"}, "[5]": {"test_system": "influenza virus", "assay_type": "cell-based", "remark": "listed apart in the source"}, "[6]": {"test_system": "HSV-2 GFP", "assay": "HSV-2 GFP infection of Vero cells, flow cytometry", "assay_type": "cell-based, Herpes simplex virus 2", "settings": "Vero cells pretreated with ML-7"}, "[7]": {"test_system": "HSV-1(F)", "assay": "Murine corneal infection model", "assay_type": "in vivo, ICR mice", "protocol": "After the cornea of ICR mice (female/5-week-old) was slightly injured with an injection needle, a medium containing or not containing 20 μM ML-7 was instilled in the eye twice with an interval of 10 minutes. After incubation for 10 minutes, an HSV-1(F) strain was inoculated at 5×10^5 PFU/eye. The virus titer in the tear, symptoms of keratitis, and survival of mice were studied.\nAfter the cornea of 28 ICR mice (female/5-week-old) per group was injured with an injection needle, a 20 μM medium containing or not containing ML-7 and 5×10^5 HSV-1(F) diluted in Medium199 were simultaneously instilled in their eye, followed by observation for 21 days.\nAfter the cornea of 28 ICR mice (female/5-week-old) per group was injured with an injection needle, a 50 μM BAPTA-AM was instilled in their eye twice with an interval of 10 minutes. After incubation for 10 minutes, 5×10^5 HSV-1(F) diluted in Medium 199 was instilled in their eye, followed by observation for 21 days. In Mock-treated group, 0.2% DMSO in Medium 199 was used instead of 50 μM BAPTA-AM."}, "[8]": {"test_system": "phosphorylation of RLC", "assay": "Phosphorylation of RLC in Vero cells exposed to HSV-1, immunoblotting", "settings": "20 μM ML-7, MOI=50"}, "[9]": {"test_system": "NMHC-IIB", "assay": "NMHC-IIB at the cell surface of HSV-1(F)-infected Cos-1 cells, biotinylation, avidin precipitation, immunoblotting", "settings": "Cos-1 cells pretreated with ML-7, wild-type HSV-1(F)"}}, "note": "Read-outs that look alike come from different tables or passages of the source.", "data": [{"smiles": "O=S(=O)(c1cccc2c(I)cccc12)N1CCCNCC1", "note": "[ML-7]", "values": [{"measurement": "Infection with HSV-1 GFP", "setting": "[1]", "result": "inhibited dose-dependently"}, {"measurement": "HSV entry into Vero cells (relative fluorescence intensity)", "setting": "[1]; […]", "result": "inhibited"}, {"measurement": "influenza virus infection", "setting": "[2]; Vero cells pretreated with ML-7", "result": "not influenced"}, {"measurement": "increase in the concentration of NMHC-IIA in the vicinity of the cell membrane upon virus entry", "setting": "[3]", "result": "inhibited"}, {"measurement": "HSV-1 infection", "setting": "[4]", "result": "dose-independently inhibited"}, {"measurement": "influenza virus infection", "setting": "[5]; Cos-1 cells pretreated with ML-7", "result": "not influenced"}, {"measurement": "HSV-2 GFP infection", "setting": "[6]", "result": "dose-independently inhibited"}, {"measurement": "survival rate of mice", "setting": "[7]; 20 μM ML-7 instilled before infection", "result": "significant increase"}, {"measurement": "symptoms of keratitis", "setting": "[7]; 20 μM ML-7 instilled before infection, after five days, vs untreated mice", "result": "significant decrease"}, {"measurement": "virus titer in the tear", "setting": "[7]; 20 μM ML-7 instilled before infection, two days after virus inoculation, vs untreated mice", "result": "significant decrease"}, {"measurement": "survival rate of mice", "setting": "[7]; 20 μM ML-7 instilled simultaneously with HSV-1(F), observation 21 days", "result": "further significant increase"}, {"measurement": "enhancement of phosphorylation of RLC by HSV-1 infection", "setting": "[8]", "result": "inhibits this enhancement"}, {"measurement": "concentration of NMHC-IIB in the vicinity of the cell membrane", "setting": "[9]", "result": "decreased significantly"}]}, {"smiles": "CC(=O)OCOC(=O)CN(CC(=O)OCOC(C)=O)c1ccccc1OCCOc1ccccc1N(CC(=O)OCOC(C)=O)CC(=O)OCOC(C)=O", "note": "[BAPTA-AM]", "values": [{"measurement": "mean fluorescence intensity (MFI), HSV-1 GFP", "setting": "[1]", "result": "decreased in a BAPTA-AM concentration dependent manner"}, {"measurement": "relative MFI, influenza virus", "setting": "[2]", "result": "not influenced"}, {"measurement": "MFI, HSV-1 GFP", "setting": "[4]", "result": "decreased in a BAPTA-AM concentration dependent manner"}, {"measurement": "influence on influenza virus infection", "setting": "[5]; Cos-1 cells, BAPTA-AM", "result": "not observed"}, {"measurement": "survival rate", "setting": "[7]; 50 μM BAPTA-AM instilled before infection, observation 21 days, vs Mock-treated group", "result": "significantly high"}]}, {"smiles": "Nc1nc2c(ncn2COCCO)c(=O)[nH]1", "note": "[ACC, acyclovir]", "values": [{"measurement": "HSV entry into Vero cells (relative fluorescence intensity)", "setting": "[1]; HSV-1 GFP MOI=1, six hours after infection", "result": "not inhibited"}]}]}
